Test [1] has as its system human GR (MMTV-LUC reporter gene, A549 cells). Description: Trans-Activation Modulation of Glucocorticoid Receptor Assay (GRAMMER), MMTV-LUC reporter in A549 cells. The format is cell-based. The note with it: for pEC50: MMTV-LUC reporter, agonist mode, read-out: Transactivation A549 Cells GRAMMER IP (inflection point); for Transactivation A549 Cells GRAMMER Emax / Emax: Emax relative to the activity obtained with 300 nM dexamethasone; for Emax: read-out: Transactivation A549 Cells GRAMMER Emax. The text has this: Trans-Activation Modulation of Glucocorticoid Receptor Assay
This assay assesses the ability of test compounds to control transcription from the MMTV-LUC reporter gene in lung adenocarcinoma A549 cells or HeLa cells, a human […] cell line that naturally expresses the human GR. The assay measures induction of a modified MMTV LTR/promoter linked to the LUC reporter gene.
The routine transient assay consists of plating 7,000-25,000 cells/well of a white, clear-bottom 96-well plate. Alternatively, 384-well plates can be used at a cell concentration of 10,000 /well. The media that the cells are plated in is “exponential growth medium” which consists of phenol red-free RPMI1640 containing 10%FBS, 4 mM L-glutamine, 20 mM HEPES, 10 μg/mL human insulin, and 20 μg/mL gentamicin. Incubator conditions are 37° C. and 5% CO2. The transfection is done in batch mode. The cells are trypsinized and counted to the right cell number in the proper amount of fresh media. It is then gently mixed with the FuGene6/DNA mix and plated onto the 96 or 384-well plate, all the wells receive 100 μL or 40 μL, respectively, of medium +lipid/DNA complex then incubated 37° C. overnight. The transfection cocktail consists of serum-free OptiMEM, FuGene6 reagent and DNA. The manufacturer's (Roche Biochemical) protocol for cocktail setup is as follows: The lipid to DNA ratio is approximately 2.5:1 and the incubation time is 20 min at room temperature. Sixteen to 24 hours after transfection, the cells are treated with dexamethasone to a final concentration of 10 nM as well as the compound of interest, such that final DMSO (vehicle) concentration is equal to or less than 1%. Each plate also contains samples that are treated with 10 nM dexamethasone alone, which is used as the 100% activity control. The cells are exposed to the compounds for 24 hours. After 24 hours, the cells are lysed by a Promega cell culture lysis buffer for approximately 30 min and then the luciferase activity in the extracts is assayed in the 96-well format luminometer. In 384-well format, Steady-Glo (Promega) or Steady-Lite (PerkinElmer) can be used by adding an equal volume of reagent to the media present in each well. Activity induced by 10 nM dexamethasone alone is set at 100% activity. Antagonist activity is calculated by determining the decrease in dexamethasone-induced activity in response to compound treatment relative to samples that were treated with dexamethasone alone. Results are expressed as % inhibition of 10 nM dexamethasone activity or as fold of 10 nM dexamethasone activity. This transactivation assay can be performed in an agonist and antagonist mode to identify these different activities.
Activity of test compounds is calculated as the Emax relative to the activity obtained with 300 nM dexamethasone. Activity of test compounds is calculated as the Emax relative to the activity obtained with 300 nM DEX. The exemplified tissue selective glucocorticoid receptor modulators of the present invention display agonist activity in this assay of greater than 5% and less than 100%, and maximal transactivation activity less then maximal transrepression activity. […]

Test [2] relates to human GR (TNFα promoter β-lactamase reporter, U937 cells). As to the kind of experiment: Transrepression Assay (GITAR), TNFα-β-lactamase reporter in U937 cells. In kind it is cell-based. As to conditions: for pEC50: TNFα-β-lactamase reporter, PMA/LPS stimulated, read-out: Transrepression U937 Cells GITAR IP (inflection point); for Transrepression U937 Cells GITAR Emax / Emax: activity repressed by 100 nM dexamethasone set as 100%. The text has this:
This assay assesses the ability of test compounds to control transcription from the TNFα-β-lactamase reporter gene in U937 cells, a human myelomonocytic leukemia cell line that naturally expresses the human GR. The assay measures compound dependent-repression of the TNFa promoter linked to a reporter gene.
The human U937cells that had been stablely transfected with the TNF-α promoter driving β-lactamase are used for this assay. U937 cells contain an endogenous glucocorticoid receptor (GR). Cells are maintained in RPMI 1640 Growth medium (Gibco Cat#11875-093) containing 25 mM HEPES, 10% FBS, 2 mM L-Glutamine, 1 mM Sodium pyruvate, 25 μg/ml Gentamicin (Gibco Cat#15710-064), 1:1000 2-Mercaptoethanol (Gibco Cat#21985-023) and 0.8 mg/ml G418 (Gibco Cat#10131-027). The density of the cells in the flask needs to be about 1×106−3×10^6/ml at the time of harvest. Usually, the cells are split to 1.2˜1.4×10^5/ml (1:10) 3 days prior to the assay. 50,000 cells/well are plated in 96 well black-walled plates the day of assay. Test compounds are added 10 μL/well, and cells are incubated at 37° C. for 30-45 min. For assaying compounds, first dilute 1:10 in DMSO to make 1 mM, then further dilute 1:100 in medium to make 10 × stock prior to adding to the cells. Add 50 ng/ml PMA (Sigma, cat# P8139) 10 μL/well to a final concentration 5 ng/ml, and 1 μg/ml LPS (Sigma, cat# L4130) 10 μL/well to a final concentration 100 ng/ml. Incubate cells at […] overnight for˜18 hr. PMA is stored frozen as 100 μg/ml stock in DMSO. Dilute 1:10 in DMSO for a working stock of 10 μg/ml and store at −20° C. For assaying, dilute the 10 μg/ml working stock 1:200 in medium to make a 10× solution (50 ng/ml). Store frozen LPS at 1 mg/ml in PBS, dilute 1:1000 in medium to make 10× (1 μg/ml) for the assay. Add 6× loading buffer (CCF2-AM) 20 μL/well, and incubate at room temperature for 70˜90 min. […] The activity repressed by 100 nM dexamethasone alone is set as 100% activity.

[3] abbreviates: Homo sapiens, U-937, U937 cells.

pEC50: −log10 of the molar value. Read-outs that look alike come from different tables or passages of the source.

`C[C@]12Cc3cnn(-c4cccnc4)c3C=C1CC[C@@H]2CC(O)c1ccccn1` (single isomer, unassigned) [Example 6b]: in test [1] (A549 cells), the pEC50 is 5.84 and the “Transactivation A549 Cells GRAMMER Emax” value was 2.2%. For the same compound, in test [2] (U937 cells), the pEC50 was 5.86 and the “Transrepression U937 Cells GITAR Emax” value came to 30.0%.
As for `COc1cccc(C(O)C[C@H]2CCC3=Cc4c(cnn4-c4cccnc4)C[C@@]32C)c1` (single isomer, unassigned) [Example 4a], in test [1] (A549 cells), the “Transactivation A549 Cells GRAMMER Emax” value came out at 47.7%. For the same compound, the pEC50 in test [1] (Homo sapiens, A549, A549 cells) is 6.33. In test [2] (U937 cells), the pEC50 was 6.94 and the “Transrepression U937 Cells GITAR Emax” value is reported as 74.8%.
Regarding `C[C@]12Cc3cnn(-c4cccnc4)c3C=C1CC[C@@H]2CC(O)c1ccccc1` (single isomer, unassigned) [Example 1a], in test [1] (A549 cells), the pEC50 is 6.46 and the “Transactivation A549 Cells GRAMMER Emax” value was 29.7%. In test [2] (U937 cells), the pEC50 is 6.56 and the “Transrepression U937 Cells GITAR Emax” value stood at 75.4%.
Turning to `COc1ccccc1C(O)C[C@H]1CCC2=Cc3c(cnn3-c3cccnc3)C[C@@]21C` (single isomer, unassigned) [Example 2a], in test [1] (A549 cells), the pEC50 is 6.52 and the “Transactivation A549 Cells GRAMMER Emax” value was determined as 68.5%. In addition, in test [2] (U937 cells), the pEC50 was 6.64 and the “Transrepression U937 Cells GITAR Emax” value was 79.5%.
For `COc1cccc(C(O)C[C@H]2CCC3=Cc4c(cnn4-c4cccnc4)C[C@@]32C)c1` (single isomer, unassigned) [Example 4b], in test [1] (A549 cells), the pEC50 is 6.10 and the “Transactivation A549 Cells GRAMMER Emax” value amounted to 15.3%. Also, in test [2] (U937 cells), the pEC50 is 6.26 and the “Transrepression U937 Cells GITAR Emax” value was 47.0%.
As a reminder, the Emax is the greatest response seen or fitted, relative to the assay's reference. As to `CC(O)(C[C@H]1CCC2=Cc3c(cnn3-c3cccnc3)C[C@@]21C)c1ccccc1` (single isomer, unassigned) [Example 7a], in test [1] (A549 cells), the pEC50 was 7.13 and the “Transactivation A549 Cells GRAMMER Emax” value came to 53.1%. The compound further returned an Emax in test [2] (setting [3]) of 84.2%. In addition, the pEC50 in test [2] (U937 cells) was 7.10.
Regarding `CC(O)(C[C@H]1CCC2=Cc3c(cnn3-c3cccnc3)C[C@@]21C)c1ccccc1` (single isomer, unassigned) [Example 7b], in test [1] (A549 cells), the pEC50 is 6.50 and the “Transactivation A549 Cells GRAMMER Emax” value is recorded as 20.0%. In addition, in test [2] (U937 cells), the pEC50 was 6.41 and the “Transrepression U937 Cells GITAR Emax” value is 65.9%.
With `COc1ccc(C(O)C[C@H]2CCC3=Cc4c(cnn4-c4cccnc4)C[C@@]32C)cn1` (stereo partly drawn) [Example 3, 1-(6-methoxypyridin-3-yl)-2-[(4αR,5R)-4α-methyl-1-(pyridin-3-yl)-1,4,4α,5,6,7-hexahydrocyclopenta[f]indazol-5-yl] ethanol], the pEC50 was 6.80 in test [1] (Homo sapiens, A549, A549 cells) and 6.70 in test [2] (setting [3]). Further, the Emax in test [1] (Homo sapiens, A549, A549 cells) worked out at 101%; in test [2] (setting [3]), 85.2%.
On to `COc1ccccc1C(O)C[C@H]1CCC2=Cc3c(cnn3-c3cccnc3)C[C@@]21C` (single isomer, unassigned) [Example 2b], for which the results for the pEC50 in test [1] (A549 cells) and in test [2] (U937 cells) were 6.09 and 5.94, respectively. For the same compound, the “Transactivation A549 Cells GRAMMER Emax” value in test [1] (A549 cells) stood at 21.5%. This compound also yielded an Emax in test [2] (setting [3]) of 73.9%.
Consider `C[C@]12Cc3cnn(-c4cccnc4)c3C=C1CC[C@@H]2CC(O)c1ccccn1` (single isomer, unassigned) [Example 6a], for which the pEC50 in test [1] (Homo sapiens, A549, A549 cells) is 5.93; in test [2] (U937 cells), 6.25. In addition, the Emax in test [1] (Homo sapiens, A549, A549 cells) was determined as 1.6%; in test [2] (setting [3]), 16.6%.
Regarding `C[C@]12Cc3cnn(-c4cccnc4)c3C=C1CC[C@@H]2CC(O)c1ccccc1` (single isomer, unassigned) [Example 1b], in test [1] (A549 cells), the pEC50 is 6.09 and the “Transactivation A549 Cells GRAMMER Emax” value turned out to be 8.5%. Also, in test [2] (U937 cells), the pEC50 is 5.77 and the “Transrepression U937 Cells GITAR Emax” value is 49.3%.
As for `COc1ccc(C(O)C[C@H]2CCC3=Cc4c(cnn4-c4cccnc4)C[C@@]32C)cc1` (stereo partly drawn) [Example 5, 1-(4-methoxyphenyl)-2-[(4αR,5R)-4α-methyl-1-(pyridin-3-yl)-1,4,4α,5,6,7-hexahydrocyclopenta[f]indazol-5-yl] ethanol], the pEC50 was 7.27 in test [1] (Homo sapiens, A549, A549 cells) and 7.68 in test [2] (setting [3]). In addition, the Emax turned out to be 90.7% in test [1] (Homo sapiens, A549, A549 cells) and 87.3% in test [2] (setting [3]).
